Laboratory results as given in patent US8835472B2, “Compounds, pharmaceutical compositions and uses thereof” (Boehringer Ingelheim International GmbH, priority 2010, dated 2014).

Biological target: human ACC2 (Homo sapiens (Human), UniProt O00763)
Experiment: ACC2 assay, spectrophotometric 384 well assay (NADH-linked, coupled lactate dehydrogenase/pyruvate kinase reaction)
Assay type: biochemical
Conditions: hACC2 construct lacking the 128 N-terminal amino acids; 25° C., 340 nm over 15 minutes
Description: Spectrophotometric 384 Well Assay
Malonyl CoA formation by acetyl CoA carboxylases is stoichometrically linked to the consumption of ATP. ACC2 activity is measured in a NADH-linked kinetic method measuring ADP generated during the ACC reaction using a coupled lactate dehydrogenase/pyruvate kinase reaction.
For biological testing, a human ACC2 construct which lacks the 128 amino acids at the N-terminus for increased solubility (nt 385-6966 in Genbank entry AJ575592) is cloned. The protein is then expressed in insect cells using a baculoviral expression system. Protein purification is performed by anion exchange.
All compounds are dissolved in dimethyl sulfoxide (DMSO) to a concentration of 10 mM.
Assay reactions are then carried out in 384-well plates, with hACC2 in an appropriate dilution and at final assay concentrations (f.c.) of 100 mM Tris (pH 7.5), 10 mM trisodium citrate, 25 mM KHCO3, 10 mM MgCl2, 0.5 mg/mL BSA, 3.75 mM reduced L-glutathione, 15 U/mL lactate dehydrogenase, 0.5 mM phosphoenolpyruvate, 15 U/mL pyruvate kinase, compounds at different concentrations at final DMSO concentrations of 1%.
The enzymatic reaction is then started by addition of a mixture of NADH, acetyl Coenzyme A (both 200 μM f.c.) and ATP (500 uM f.c.). The decrease of the optical density (slope S) is then determined at 25° C. at a wavelength of 340 nm over 15 minutes in a spectrophotometric reader.
Each assay microtiter plate contains wells with vehicle instead of compound as controls for the non-inhibited enzyme (100% CTL; ‘HIGH’) and wells without acetyl-CoA as controls for non-specific NADH degradation (0% CTL; ‘LOW’).
The slope S is used for calculation of % CTL=(S(compound)−S(‘LOW’))/(S(‘HIGH’)−S(‘LOW’))*100. Compounds will give values between 100% CTL (no inhibition) and 0% CTL (complete inhibition).
For IC50 value determination, the sample slope in the presence of the test compound after subtraction of the low controls (S(compound)−S(‘LOW’)) are used. An IC50 value is derived from the compound slopes at different dosages after subtraction of the low controls (S(compound)−S(‘LOW’)) by non-linear regression curve fitting (equation y=(A+((B−A)/(1+((C/x)^D))))).

human ACC2, sequence (O00763 129-2458): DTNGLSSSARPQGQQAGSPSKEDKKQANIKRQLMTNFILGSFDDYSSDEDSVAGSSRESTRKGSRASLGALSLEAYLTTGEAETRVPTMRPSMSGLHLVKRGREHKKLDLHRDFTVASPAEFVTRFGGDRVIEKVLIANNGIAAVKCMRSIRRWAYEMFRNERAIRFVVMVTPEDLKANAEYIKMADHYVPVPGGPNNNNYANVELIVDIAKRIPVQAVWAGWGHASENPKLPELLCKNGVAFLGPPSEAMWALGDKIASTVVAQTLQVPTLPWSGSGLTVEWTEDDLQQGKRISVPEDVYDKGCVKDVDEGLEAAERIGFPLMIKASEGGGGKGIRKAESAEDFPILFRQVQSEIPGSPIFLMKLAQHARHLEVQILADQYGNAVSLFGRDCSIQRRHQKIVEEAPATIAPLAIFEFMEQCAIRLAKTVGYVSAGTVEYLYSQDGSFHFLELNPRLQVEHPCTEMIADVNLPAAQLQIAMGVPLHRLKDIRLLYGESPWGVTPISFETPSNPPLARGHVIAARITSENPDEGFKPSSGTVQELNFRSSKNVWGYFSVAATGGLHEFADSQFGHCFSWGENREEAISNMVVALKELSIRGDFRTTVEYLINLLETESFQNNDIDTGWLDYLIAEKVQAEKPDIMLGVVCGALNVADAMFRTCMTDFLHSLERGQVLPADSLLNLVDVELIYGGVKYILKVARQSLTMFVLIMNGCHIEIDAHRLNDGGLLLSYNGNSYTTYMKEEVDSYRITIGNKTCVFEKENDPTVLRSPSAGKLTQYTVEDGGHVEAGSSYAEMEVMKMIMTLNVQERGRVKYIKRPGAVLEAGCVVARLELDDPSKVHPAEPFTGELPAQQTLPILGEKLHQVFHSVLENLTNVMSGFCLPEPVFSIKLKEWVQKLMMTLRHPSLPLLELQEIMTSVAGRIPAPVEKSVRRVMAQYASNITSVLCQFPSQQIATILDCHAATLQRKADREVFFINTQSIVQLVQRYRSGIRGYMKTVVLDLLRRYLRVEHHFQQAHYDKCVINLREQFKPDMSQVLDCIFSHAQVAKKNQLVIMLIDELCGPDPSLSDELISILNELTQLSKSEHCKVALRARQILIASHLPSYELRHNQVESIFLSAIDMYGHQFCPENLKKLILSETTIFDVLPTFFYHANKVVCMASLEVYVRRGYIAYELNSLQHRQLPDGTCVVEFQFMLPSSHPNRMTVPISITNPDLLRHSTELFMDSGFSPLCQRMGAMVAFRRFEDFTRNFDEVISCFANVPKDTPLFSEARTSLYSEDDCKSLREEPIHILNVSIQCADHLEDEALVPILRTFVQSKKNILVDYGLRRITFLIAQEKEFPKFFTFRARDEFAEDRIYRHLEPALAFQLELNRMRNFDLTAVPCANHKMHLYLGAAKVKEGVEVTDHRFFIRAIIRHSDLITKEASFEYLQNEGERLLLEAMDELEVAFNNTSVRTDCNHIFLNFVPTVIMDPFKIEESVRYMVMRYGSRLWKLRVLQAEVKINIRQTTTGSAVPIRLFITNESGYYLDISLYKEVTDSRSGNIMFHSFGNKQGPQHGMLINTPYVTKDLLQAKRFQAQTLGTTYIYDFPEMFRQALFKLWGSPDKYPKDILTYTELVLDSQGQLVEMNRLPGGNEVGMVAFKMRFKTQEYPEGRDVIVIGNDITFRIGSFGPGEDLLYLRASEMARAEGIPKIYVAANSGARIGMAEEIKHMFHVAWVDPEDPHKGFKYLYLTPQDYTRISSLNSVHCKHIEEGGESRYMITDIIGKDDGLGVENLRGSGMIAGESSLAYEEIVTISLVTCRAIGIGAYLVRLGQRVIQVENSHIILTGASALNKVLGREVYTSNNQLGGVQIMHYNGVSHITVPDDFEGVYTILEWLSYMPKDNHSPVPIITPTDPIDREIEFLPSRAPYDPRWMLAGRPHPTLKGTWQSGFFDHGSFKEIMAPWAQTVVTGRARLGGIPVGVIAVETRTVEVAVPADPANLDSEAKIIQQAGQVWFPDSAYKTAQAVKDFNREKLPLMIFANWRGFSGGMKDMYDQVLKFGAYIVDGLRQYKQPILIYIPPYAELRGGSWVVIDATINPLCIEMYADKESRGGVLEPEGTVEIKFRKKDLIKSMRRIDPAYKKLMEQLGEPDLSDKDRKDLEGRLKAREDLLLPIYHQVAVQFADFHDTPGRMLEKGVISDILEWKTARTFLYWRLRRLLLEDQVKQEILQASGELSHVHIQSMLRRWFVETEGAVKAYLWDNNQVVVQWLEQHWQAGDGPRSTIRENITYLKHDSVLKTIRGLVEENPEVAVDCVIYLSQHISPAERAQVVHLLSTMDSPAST

| IC50 | SMILES |
| --- | --- |
| 130 nM | CC(=O)N[C@@H](C)Cc1ccc(C#Cc2ccc(OC(C)C)cc2)cc1 [Example 23.2] |
| 230 nM | CC(=O)NC(C)Cc1ccc(C#Cc2cnc(N3CCC(C)(C)C3)nc2)cc1 (stereo not drawn) [Example 13.68] |
| 660 nM | CC(=O)NC(C)Cc1ccc(C#Cc2cnc(NCC3CC3(C)C)nc2)cc1 (stereo not drawn) [Example 13.67] |
| 10300 nM | COC(=O)CN(C)c1nccc(C#Cc2ccc(CC(C)NC(C)=O)cc2)n1 (stereo not drawn) [Example 11.48] |
| 1300 nM | CCCOc1ccc(C#Cc2ccc(C(C)NC(C)=O)cc2)c(OC)c1 (stereo not drawn) [Example 2.51] |
| 110 nM | CCOc1ccc(C#Cc2ccc(CC(C)NC(=O)c3ccco3)cc2)cc1 (stereo not drawn) [Example 4.59] |
| 480 nM | COc1ccccc1CNc1ncc(C#Cc2ccc(CC(C)NC(C)=O)cc2)cn1 (stereo not drawn) [Example 13.80] |
| 12100 nM | CC(=O)NC(C)Cc1ccc(C#Cc2cccc(C(=O)N(C)CC(=O)OC(C)(C)C)c2)cc1 (stereo not drawn) [Example 8.47] |
| 2100 nM | CC(Cc1ccc(C#Cc2ccc(OC(F)F)cc2)cc1)NC(=O)C1CC1 (stereo not drawn) [Example 2.59] |
| 360 nM | CCOc1ccc(C#Cc2ccc(CC(C)NC(=O)N(C)CC)cc2)cc1 (stereo not drawn) [Example 7.3] |
| 420 nM | CC(=O)NC(C)Cc1ccc(C#Cc2ccc(OCCc3cn[nH]c3)cc2)cc1 (stereo not drawn) [Example 9.36] |
| 630 nM | COCCCOc1cccc(C#Cc2ccc(CC(C)NC(C)=O)cc2)c1 (stereo not drawn) [Example 9.13] |
| 500 nM | COC(=O)NC(C)Cc1ccc(C#Cc2cnc(NC3CCC3)nc2)cc1 (stereo not drawn) [Example 13.31] |
| 14300 nM | CC(=O)NC(C)Cc1ccc(C#Cc2ccnc(N3CCN(C)CC3)n2)cc1 (stereo not drawn) [Example 11.37] |
| 30000 nM | CC(=O)NC(C)Cc1ccc(C#Cc2cccc(C(=O)N3Cc4ccccc4C3)c2)cc1 (stereo not drawn) [Example 8.42] |
| 2200 nM | CCOc1ccc(C#Cc2ccc(C(C)NC(=O)Nc3cccnc3)cc2)cc1 (stereo not drawn) [Example 6.2] |
| 180 nM | CC(=O)NC(C)CCc1ccc(C#Cc2ccc(OC(C)C)cc2)cc1 (stereo not drawn) [Example 14.9] |
| 16900 nM | CC(=O)NC(C)Cc1ccc(C#Cc2cccc(C(=O)N3CCOCC3)c2)cc1 (stereo not drawn) [Example 1.32] |
| 600 nM | CCOc1ccc(C#Cc2ccc(CC(C)NC(=O)C3CNC3)cc2)cc1 (stereo not drawn) [Example 4.34] |
| 250 nM | CCOc1ccc(C#Cc2ccc(CC(C)NS(=O)(=O)C3CC3)cc2)cc1 (stereo not drawn) [Example 5.1] |
| 8100 nM | CC(=O)NC(C)Cc1ccc(C#Cc2ccnc(N3CC(F)(F)C3)n2)cc1 (stereo not drawn) [Example 11.22] |
| 11000 nM | CCOc1ccc(C#Cc2ccc(C(C)NC(=O)CCO)cc2)cc1 (stereo not drawn) [Example 4.43] |
| 80 nM | CC(=O)NC(C)Cc1ccc(C#Cc2ccc(OCC3CC3)cc2)cc1 (stereo not drawn) [Example 9.20] |
| 4500 nM | COC(=O)c1cc(C#Cc2ccc(CC(C)NC(C)=O)cc2)ccn1 (stereo not drawn) [Example 3.10] |
| 230 nM | CCOc1ccc(C#Cc2ccc(CC(C)NC(=O)C(F)F)cc2)cc1 (stereo not drawn) [Example 4.26] |

| IC50 | SMILES |
| --- | --- |
| 190 nM | CCOc1ccc(C#Cc2ccc(CC(C)NC(=O)C(C)C)cc2)cc1 (stereo not drawn) [Example 4.2] |
| 220 nM | CC(=O)NC(C)Cc1ccc(C#Cc2cnc(N3CCC(C)(C)CC3)nc2)cc1 (stereo not drawn) [Example 13.57] |
| 9000 nM | CC(=O)NC(C)Cc1ccc(C#Cc2cnc(OCc3ccccc3F)nc2)cc1 (stereo not drawn) [Example 12.53] |
| 2300 nM | CC(=O)NC(C)Cc1ccc(C#Cc2ccc(C(=O)NCc3ccccc3)cc2)cc1 (stereo not drawn) [Example 1.12] |
| 80 nM | CC(Cc1ccc(C#Cc2ccc(OC3CCCC3)cc2)cc1)NC(=O)C1CC1 (stereo not drawn) [Example 14.47] |
| 2800 nM | CCOc1ccc(C#Cc2ccc(CC(C)NC(=O)C3CCNC3)cc2)cc1 (stereo not drawn) [Example 4.74] |
| 320 nM | CC(=O)NC(C)Cc1ccc(C#Cc2ccc(OCC3CC3)nc2)cc1 (stereo not drawn) [Example 2.23] |
| 160 nM | CCCOc1ccc(C#Cc2ccc(CC(C)NC(C)=O)cc2)c(OC)c1 (stereo not drawn) [Example 2.32] |
| 450 nM | CC(=O)NC(C)c1ccc(C#Cc2ccc(OC3CCCC3)nc2)cc1 (stereo not drawn) [Example 2.43] |
| 2000 nM | CCOc1ccc(C#Cc2ccc(C(C)NC(=O)C3CC3)cc2)cc1 (stereo not drawn) [Example 4.41] |
| 4700 nM | CC(=O)NC(C)Cc1ccc(C#Cc2nccs2)cc1 (stereo not drawn) [Example 3.16] |
| 70 nM | CC(=O)N[C@@H](C)c1ccc(C#Cc2ccc(OC3CCC3)cc2)cc1 [Example 14.7] |
| 1600 nM | CCOc1ccc(C#Cc2ccc(CC(C)NC(=O)c3cc[nH]n3)cc2)cc1 (stereo not drawn) [Example 4.16] |
| 260 nM | CC(=O)NC(C)c1ccc(C#Cc2ccc(OCC(C)C)cc2)cc1 (stereo not drawn) [Example 2.48] |
| 530 nM | CC(=O)NC(C)Cc1ccc(C#Cc2ccc(Cl)cc2)cc1 (stereo not drawn) [Example 1.1, N-(1-(4-((4-Chlorophenyl)ethynyl)phenyl)propan-2-yl)acetamide] |
| 1600 nM | COc1ccc(C#Cc2ccc(CC(C)NC(C)=O)cc2)cc1OC (stereo not drawn) [22.1] |
| 730 nM | CC(=O)NC(C)Cc1ccc(C#Cc2ccc3c(c2)CCO3)cc1 (stereo not drawn) [Example 2.8] |
| 920 nM | CCOc1ccc(C#Cc2ccc(CC(C)NC(=O)C3(C#N)CC3)cc2)cc1 (stereo not drawn) [Example 4.63] |
| 1100 nM | CC(=O)NC(C)Cc1ccc(C#Cc2ccc(Br)cc2F)cc1 (stereo not drawn) [Example 1.24] |
| 1100 nM | CCOc1ccc(C#Cc2ccc(CC(C)NC(=O)CN(C)C)cc2)cc1 (stereo not drawn) [Example 4.10] |
| 370 nM | CCOc1ccc(C#Cc2ccc(C(C)NC(=O)c3cncs3)cc2)cc1 (stereo not drawn) [Example 4.53] |
| 70 nM | CCCOc1ccc(C#Cc2ccc(CC(C)(C)NC(C)=O)cc2)cc1 [Example 35.1, N-(1,1-Dimethyl-2-(4-(4-propoxyphenylethynyl)-phenyl)-ethyl)-acetamide] |
| 760 nM | CC(=O)NC(C)Cc1ccc(C#Cc2ccc(OC(F)F)cc2)cc1 (stereo not drawn) [Example 2.7] |
| 24400 nM | C[C@H](NC(=O)C1CC1)c1ccc(I)cc1 [28.1] |
| 70 nM | CCCOc1ccc(C#Cc2ccc(C[C@H](C)NC(C)=O)cc2)cc1 [Example 23.6] |

| IC50 | SMILES |
| --- | --- |
| 740 nM | CC(=O)NC(C)Cc1ccc(C#Cc2ccc(C3CC3)cn2)cc1 (stereo not drawn) [Example 2.80] |
| 1400 nM | CC(=O)NCCc1ccc(C#Cc2ccc(Oc3ccccc3)nc2)cc1 [Example 14.38] |
| 24600 nM | CC(=O)NC(C)(C)c1ccc(C#Cc2ccc(OC3CCC3)cc2)cc1 [Example 2.42] |
| 2000 nM | COc1cc(C#Cc2ccc(CC(C)NC(=O)C3CC3)cc2)ccn1 (stereo not drawn) [Example 2.69] |
| 4100 nM | CCCn1ccc(C#Cc2ccc(CC(C)NC(C)=O)cc2)cc1=O (stereo not drawn) [Example 14.5] |
| 270 nM | CC(=O)NCC(C)(C)c1ccc(C#Cc2cnc(NC3CCC3)nc2)cc1 [Example 2.33] |
| 2000 nM | CC(=O)NC(C)Cc1ccc(C#Cc2cccc3ccccc23)cc1 (stereo not drawn) [Example 1.4] |
| 15400 nM | CCOc1ccc(C#Cc2ccc(C(C)NC(=O)C3CC3C)cc2)cc1 (stereo not drawn) [Example 4.75] |
| 70 nM | CCOc1ccc(C#Cc2ccc(CC(C)NC(=O)c3cn[nH]c3)cc2)cc1 (stereo not drawn) [Example 4.69] |
| 2200 nM | COC(=O)NC(C)Cc1ccc(C#Cc2cnc(N3CCC3)nc2)cc1 (stereo not drawn) [Example 13.40] |
| 2400 nM | CCCN(C)C(=O)c1cccc(C#Cc2ccc(CC(C)NC(C)=O)cc2)c1 (stereo not drawn) [Example 8.25] |
| 360 nM | COC(=O)NC(C)Cc1ccc(C#Cc2cnc(N3CC4CCCC4C3)nc2)cc1 (stereo not drawn) [Example 13.30] |
| 8500 nM | CCOc1ccc(C#Cc2ccc(C(C)NC(=O)C(C)OCC(F)(F)F)cc2)cc1 (stereo not drawn) [Example 4.46] |
| 530 nM | CC(=O)NC(C)Cc1ccc(C#Cc2cnc(OCc3ccccc3)nc2)cc1 (stereo not drawn) [Example 12.20] |
| 1500 nM | CCC(C)Nc1ncc(C#Cc2ccc(CC(C)NC(=O)C3CC3)cc2)cn1 (stereo not drawn) [Example 13.50] |
| 16400 nM | COCCOc1ccc(C#Cc2ccc(CC(C)NC(C)=O)cc2)nn1 (stereo not drawn) [Example 2.89] |
| 140 nM | CCC(C)Oc1ccc(C#Cc2ccc(CC(C)NC(C)=O)cc2)cc1 (stereo not drawn) [Example 23.9] |
| 520 nM | COC(=O)NCC(C)c1ccc(C#Cc2cnc(OC3CCC3)nc2)cc1 (stereo not drawn) [Example 33.4] |
| 4500 nM | CC(=O)NC(C)Cc1ccc(C#Cc2ccnc(N3CCC(C#N)C3)n2)cc1 (stereo not drawn) [Example 11.29] |
| 330 nM | CC(=O)NC(C)Cc1ccc(C#Cc2ccnc(N(C)CC(C)C)n2)cc1 (stereo not drawn) [Example 11.15] |
| 2700 nM | CCOc1ccc(C#Cc2ccc(C(C)NC(=O)c3ccccn3)cc2)cc1 (stereo not drawn) [Example 4.47] |
| 2100 nM | COCCOc1ncc(C#Cc2ccc(CC(C)NC(C)=O)cc2)cn1 (stereo not drawn) [Example 12.9] |
| 2100 nM | CC(=O)NC(C)Cc1ccc(C#Cc2cccc(OCc3c[nH]cn3)c2)cc1 (stereo not drawn) [Example 9.15] |
| 170 nM | CCOc1ccc(C#Cc2ccc(CC(C)NC(=O)c3cnco3)cc2)cc1 (stereo not drawn) [Example 4.38] |
| 1400 nM | COC(=O)CNc1ncc(C#Cc2ccc(CC(C)NC(C)=O)cc2)cn1 (stereo not drawn) [Example 13.5] |
